From ChEMBL document CHEMBL3621077, “Synthesis of hybrid anticancer agents based on kinase and histone deacetylase inhibitors” (Medchemcomm, 2014)
The source made the active and inactive calls. The calls are words filed in the database; no cut-off is given here.

Experiments:
[1] = molecular target: Vascular endothelial growth factor receptor 1 (Homo sapiens, UniProt P17948); test: Inhibition of VEGFR1 (unknown origin)
[2] = molecular target: Vascular endothelial growth factor receptor 2 (Homo sapiens, UniProt P35968); test: Inhibition of VEGFR2 (unknown origin)
[3] = molecular target: Platelet-derived growth factor receptor beta (Homo sapiens, UniProt P09619); test: Inhibition of PDGFRb (unknown origin)
Sequence of Platelet-derived growth factor receptor beta (P09619 whole entry): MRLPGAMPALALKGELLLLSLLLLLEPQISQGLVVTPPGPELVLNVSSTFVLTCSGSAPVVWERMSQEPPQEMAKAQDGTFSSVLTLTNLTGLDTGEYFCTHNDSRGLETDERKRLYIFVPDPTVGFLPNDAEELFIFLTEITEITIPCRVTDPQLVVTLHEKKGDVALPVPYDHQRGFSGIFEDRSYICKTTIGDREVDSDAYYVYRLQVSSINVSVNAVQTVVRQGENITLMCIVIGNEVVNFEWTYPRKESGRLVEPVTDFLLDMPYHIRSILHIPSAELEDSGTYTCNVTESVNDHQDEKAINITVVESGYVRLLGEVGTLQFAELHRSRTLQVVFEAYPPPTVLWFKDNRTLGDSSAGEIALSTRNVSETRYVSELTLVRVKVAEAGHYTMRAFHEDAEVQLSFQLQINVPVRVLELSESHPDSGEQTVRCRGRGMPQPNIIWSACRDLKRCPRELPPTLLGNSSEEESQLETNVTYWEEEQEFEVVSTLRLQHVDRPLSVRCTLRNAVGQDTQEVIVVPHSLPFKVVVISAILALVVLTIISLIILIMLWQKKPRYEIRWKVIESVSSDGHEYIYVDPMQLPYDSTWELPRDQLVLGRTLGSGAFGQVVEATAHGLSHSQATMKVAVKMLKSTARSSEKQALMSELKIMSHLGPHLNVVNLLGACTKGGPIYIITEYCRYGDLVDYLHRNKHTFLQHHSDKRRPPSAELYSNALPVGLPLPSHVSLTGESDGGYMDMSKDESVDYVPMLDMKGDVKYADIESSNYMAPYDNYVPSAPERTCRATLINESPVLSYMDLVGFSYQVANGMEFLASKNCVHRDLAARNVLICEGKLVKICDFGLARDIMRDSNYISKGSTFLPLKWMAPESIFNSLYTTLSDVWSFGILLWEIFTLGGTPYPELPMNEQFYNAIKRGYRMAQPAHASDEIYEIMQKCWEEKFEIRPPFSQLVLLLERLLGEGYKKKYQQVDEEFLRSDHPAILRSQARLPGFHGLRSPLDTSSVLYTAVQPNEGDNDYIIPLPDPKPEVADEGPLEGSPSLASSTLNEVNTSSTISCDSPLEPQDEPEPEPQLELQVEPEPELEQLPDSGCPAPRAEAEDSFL

[4] = molecular target: Platelet-derived growth factor receptor alpha (Homo sapiens, UniProt P16234); test: Inhibition of PDGFRa (unknown origin)
Sequence of Platelet-derived growth factor receptor alpha (P16234 whole entry): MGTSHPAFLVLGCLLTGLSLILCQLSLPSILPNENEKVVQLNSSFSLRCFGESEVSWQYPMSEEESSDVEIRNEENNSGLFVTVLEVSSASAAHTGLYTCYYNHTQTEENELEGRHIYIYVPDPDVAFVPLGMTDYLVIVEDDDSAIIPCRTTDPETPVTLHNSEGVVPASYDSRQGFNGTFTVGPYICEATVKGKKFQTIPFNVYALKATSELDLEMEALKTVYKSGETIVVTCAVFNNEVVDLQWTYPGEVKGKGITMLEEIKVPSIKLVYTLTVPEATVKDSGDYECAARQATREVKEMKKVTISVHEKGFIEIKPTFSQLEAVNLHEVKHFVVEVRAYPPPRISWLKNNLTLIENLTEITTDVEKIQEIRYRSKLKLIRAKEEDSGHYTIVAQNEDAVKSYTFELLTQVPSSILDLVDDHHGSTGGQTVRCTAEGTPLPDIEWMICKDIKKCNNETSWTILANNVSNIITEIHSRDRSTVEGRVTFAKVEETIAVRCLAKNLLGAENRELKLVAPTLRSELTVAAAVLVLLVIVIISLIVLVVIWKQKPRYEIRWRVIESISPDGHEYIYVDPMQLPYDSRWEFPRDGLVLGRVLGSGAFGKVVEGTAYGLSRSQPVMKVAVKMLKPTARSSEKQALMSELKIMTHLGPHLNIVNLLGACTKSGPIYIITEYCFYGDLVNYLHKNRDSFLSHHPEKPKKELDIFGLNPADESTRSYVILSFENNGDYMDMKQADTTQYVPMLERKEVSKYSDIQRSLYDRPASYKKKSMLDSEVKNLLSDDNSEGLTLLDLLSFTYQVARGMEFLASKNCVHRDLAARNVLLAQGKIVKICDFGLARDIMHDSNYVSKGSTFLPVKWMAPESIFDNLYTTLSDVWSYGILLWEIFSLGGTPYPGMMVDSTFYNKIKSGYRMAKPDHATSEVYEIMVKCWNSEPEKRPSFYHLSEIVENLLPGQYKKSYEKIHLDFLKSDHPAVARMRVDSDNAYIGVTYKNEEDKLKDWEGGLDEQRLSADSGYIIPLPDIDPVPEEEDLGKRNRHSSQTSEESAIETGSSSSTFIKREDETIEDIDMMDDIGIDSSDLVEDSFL

[5] = molecular target: Histone deacetylase; assay type: cell-based, Homo sapiens; details: hela
[6] = molecular target: Histone deacetylase (Homo sapiens) (UniProt Q13547+O15379+Q9UBN7+Q92769+Q9UQL6+Q8WUI4+Q9BY41+Q96DB2+P56524+Q9UKV0+Q969S8); test: Inhibition of HDAC isolated from human HeLa cells at 1 uM by fluorimetric assay; assay type: cell-free
[7] = molecular target: Histone deacetylase 4 (Homo sapiens, UniProt P56524); test: Inhibition of HDAC4 (unknown origin)
Sequence of Histone deacetylase 4 (P56524 whole entry): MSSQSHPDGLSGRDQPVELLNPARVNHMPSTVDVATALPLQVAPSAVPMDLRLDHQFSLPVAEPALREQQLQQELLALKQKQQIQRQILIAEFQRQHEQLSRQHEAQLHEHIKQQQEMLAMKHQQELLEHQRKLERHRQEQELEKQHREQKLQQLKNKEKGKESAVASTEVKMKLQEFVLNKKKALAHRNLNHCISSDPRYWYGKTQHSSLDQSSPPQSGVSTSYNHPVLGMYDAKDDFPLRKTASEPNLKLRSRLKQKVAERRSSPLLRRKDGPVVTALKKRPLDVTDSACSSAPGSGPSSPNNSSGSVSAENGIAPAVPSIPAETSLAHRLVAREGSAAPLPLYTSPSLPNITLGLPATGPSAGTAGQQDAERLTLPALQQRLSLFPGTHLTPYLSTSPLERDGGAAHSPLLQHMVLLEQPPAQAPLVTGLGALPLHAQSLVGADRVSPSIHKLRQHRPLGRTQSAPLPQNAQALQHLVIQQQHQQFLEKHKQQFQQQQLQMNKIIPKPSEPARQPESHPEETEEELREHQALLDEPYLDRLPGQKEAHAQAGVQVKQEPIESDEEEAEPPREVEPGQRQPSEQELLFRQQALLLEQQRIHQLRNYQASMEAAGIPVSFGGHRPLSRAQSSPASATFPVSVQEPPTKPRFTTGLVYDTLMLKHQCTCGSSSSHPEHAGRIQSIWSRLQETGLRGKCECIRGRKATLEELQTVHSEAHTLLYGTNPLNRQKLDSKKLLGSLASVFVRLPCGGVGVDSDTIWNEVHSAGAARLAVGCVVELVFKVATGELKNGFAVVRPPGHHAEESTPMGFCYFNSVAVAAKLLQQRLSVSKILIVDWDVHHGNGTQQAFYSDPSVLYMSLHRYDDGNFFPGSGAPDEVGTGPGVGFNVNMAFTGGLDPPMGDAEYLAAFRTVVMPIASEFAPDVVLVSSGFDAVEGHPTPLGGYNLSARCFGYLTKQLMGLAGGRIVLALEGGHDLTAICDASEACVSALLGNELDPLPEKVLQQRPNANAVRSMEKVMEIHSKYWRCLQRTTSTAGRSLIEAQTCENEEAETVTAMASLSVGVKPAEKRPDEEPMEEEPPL

[8] = molecular target: Histone deacetylase 5 (Homo sapiens, UniProt Q9UQL6); test: Inhibition of HDAC5 (unknown origin)
Sequence of Histone deacetylase 5 (Q9UQL6 whole entry): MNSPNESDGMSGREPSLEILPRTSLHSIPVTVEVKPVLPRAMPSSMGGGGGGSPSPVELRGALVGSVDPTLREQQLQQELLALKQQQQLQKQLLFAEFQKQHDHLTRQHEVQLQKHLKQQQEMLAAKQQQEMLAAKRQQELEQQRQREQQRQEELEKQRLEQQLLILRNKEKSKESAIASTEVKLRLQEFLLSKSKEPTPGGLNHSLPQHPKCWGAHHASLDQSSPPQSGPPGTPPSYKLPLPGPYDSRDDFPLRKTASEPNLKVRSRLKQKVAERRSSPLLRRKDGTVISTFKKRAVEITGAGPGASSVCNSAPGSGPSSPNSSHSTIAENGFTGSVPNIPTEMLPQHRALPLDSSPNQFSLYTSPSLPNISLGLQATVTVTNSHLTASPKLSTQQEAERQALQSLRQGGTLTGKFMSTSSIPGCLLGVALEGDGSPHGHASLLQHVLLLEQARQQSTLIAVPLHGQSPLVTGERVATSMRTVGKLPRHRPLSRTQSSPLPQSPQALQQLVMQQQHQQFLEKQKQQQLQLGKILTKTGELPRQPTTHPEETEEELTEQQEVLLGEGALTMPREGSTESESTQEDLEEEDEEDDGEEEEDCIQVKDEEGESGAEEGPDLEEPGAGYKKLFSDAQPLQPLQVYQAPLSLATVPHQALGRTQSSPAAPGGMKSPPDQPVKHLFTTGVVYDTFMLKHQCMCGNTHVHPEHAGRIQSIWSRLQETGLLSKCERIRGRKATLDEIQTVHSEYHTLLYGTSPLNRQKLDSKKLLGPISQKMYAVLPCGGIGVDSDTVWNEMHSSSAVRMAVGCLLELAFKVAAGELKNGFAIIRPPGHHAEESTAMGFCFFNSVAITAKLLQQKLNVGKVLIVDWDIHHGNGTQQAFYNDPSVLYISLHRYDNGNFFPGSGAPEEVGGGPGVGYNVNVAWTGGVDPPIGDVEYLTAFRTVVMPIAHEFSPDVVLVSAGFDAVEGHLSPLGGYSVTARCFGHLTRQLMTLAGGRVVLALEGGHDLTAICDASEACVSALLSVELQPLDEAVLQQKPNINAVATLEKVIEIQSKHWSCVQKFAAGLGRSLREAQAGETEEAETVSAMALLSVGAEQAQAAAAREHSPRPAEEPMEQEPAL

[9] = molecular target: T1, Histone deacetylase 7 (Homo sapiens, UniProt Q8WUI4); test: Inhibition of HDAC7 (unknown origin)
T1 sequence (Q8WUI4 whole entry): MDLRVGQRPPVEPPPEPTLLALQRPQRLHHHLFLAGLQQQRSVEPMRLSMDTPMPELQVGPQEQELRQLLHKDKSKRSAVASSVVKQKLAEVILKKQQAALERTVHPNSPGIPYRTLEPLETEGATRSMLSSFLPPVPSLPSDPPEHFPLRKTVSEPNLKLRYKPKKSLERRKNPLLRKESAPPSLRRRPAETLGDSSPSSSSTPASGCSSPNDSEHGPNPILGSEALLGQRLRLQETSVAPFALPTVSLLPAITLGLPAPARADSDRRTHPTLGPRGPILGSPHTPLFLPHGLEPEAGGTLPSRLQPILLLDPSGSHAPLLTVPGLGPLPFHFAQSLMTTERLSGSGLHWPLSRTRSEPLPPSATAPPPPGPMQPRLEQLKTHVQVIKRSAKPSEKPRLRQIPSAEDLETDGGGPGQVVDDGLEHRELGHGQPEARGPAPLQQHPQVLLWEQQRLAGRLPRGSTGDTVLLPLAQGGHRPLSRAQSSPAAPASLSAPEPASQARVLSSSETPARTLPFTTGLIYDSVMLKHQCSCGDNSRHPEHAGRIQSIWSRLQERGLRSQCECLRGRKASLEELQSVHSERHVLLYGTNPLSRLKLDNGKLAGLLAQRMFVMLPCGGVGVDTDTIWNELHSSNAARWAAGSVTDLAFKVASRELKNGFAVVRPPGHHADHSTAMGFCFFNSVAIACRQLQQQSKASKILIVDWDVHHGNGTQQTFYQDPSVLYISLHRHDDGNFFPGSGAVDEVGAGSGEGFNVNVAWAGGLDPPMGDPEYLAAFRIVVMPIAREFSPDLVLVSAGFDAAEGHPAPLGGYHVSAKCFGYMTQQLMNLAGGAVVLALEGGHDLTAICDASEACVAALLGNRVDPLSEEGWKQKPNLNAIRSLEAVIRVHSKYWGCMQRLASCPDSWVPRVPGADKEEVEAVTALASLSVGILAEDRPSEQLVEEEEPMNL

[10] = molecular target: Histone deacetylase 9 (Homo sapiens, UniProt Q9UKV0); test: Inhibition of HDAC9 (unknown origin)
[11] = molecular target: Histone deacetylase 1 (Homo sapiens, UniProt Q13547); test: Inhibition of HDAC1 (unknown origin)
Sequence of Histone deacetylase 1 (Q13547 whole entry): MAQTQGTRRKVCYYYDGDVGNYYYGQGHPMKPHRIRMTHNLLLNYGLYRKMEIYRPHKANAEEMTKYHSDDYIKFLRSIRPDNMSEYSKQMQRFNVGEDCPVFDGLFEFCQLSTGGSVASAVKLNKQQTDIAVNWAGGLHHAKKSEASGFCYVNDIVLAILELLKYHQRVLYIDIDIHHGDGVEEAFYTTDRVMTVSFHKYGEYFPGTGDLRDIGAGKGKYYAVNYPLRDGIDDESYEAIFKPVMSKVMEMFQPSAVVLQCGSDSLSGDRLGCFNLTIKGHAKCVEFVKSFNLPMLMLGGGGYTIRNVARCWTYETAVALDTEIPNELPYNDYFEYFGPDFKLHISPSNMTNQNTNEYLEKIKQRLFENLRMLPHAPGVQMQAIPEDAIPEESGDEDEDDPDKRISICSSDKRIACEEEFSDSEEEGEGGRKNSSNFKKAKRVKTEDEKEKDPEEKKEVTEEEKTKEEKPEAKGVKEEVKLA

[12] = molecular target: Histone deacetylase 2 (Homo sapiens, UniProt Q92769)
[13] = molecular target: Histone deacetylase 3 (Homo sapiens, UniProt O15379); test: Inhibition of HDAC3 (unknown origin)
[14] = molecular target: T2, Protein deacetylase HDAC6 (Homo sapiens, UniProt Q9UBN7); test: Inhibition of HDAC6 (unknown origin)
T2 sequence (Q9UBN7 whole entry): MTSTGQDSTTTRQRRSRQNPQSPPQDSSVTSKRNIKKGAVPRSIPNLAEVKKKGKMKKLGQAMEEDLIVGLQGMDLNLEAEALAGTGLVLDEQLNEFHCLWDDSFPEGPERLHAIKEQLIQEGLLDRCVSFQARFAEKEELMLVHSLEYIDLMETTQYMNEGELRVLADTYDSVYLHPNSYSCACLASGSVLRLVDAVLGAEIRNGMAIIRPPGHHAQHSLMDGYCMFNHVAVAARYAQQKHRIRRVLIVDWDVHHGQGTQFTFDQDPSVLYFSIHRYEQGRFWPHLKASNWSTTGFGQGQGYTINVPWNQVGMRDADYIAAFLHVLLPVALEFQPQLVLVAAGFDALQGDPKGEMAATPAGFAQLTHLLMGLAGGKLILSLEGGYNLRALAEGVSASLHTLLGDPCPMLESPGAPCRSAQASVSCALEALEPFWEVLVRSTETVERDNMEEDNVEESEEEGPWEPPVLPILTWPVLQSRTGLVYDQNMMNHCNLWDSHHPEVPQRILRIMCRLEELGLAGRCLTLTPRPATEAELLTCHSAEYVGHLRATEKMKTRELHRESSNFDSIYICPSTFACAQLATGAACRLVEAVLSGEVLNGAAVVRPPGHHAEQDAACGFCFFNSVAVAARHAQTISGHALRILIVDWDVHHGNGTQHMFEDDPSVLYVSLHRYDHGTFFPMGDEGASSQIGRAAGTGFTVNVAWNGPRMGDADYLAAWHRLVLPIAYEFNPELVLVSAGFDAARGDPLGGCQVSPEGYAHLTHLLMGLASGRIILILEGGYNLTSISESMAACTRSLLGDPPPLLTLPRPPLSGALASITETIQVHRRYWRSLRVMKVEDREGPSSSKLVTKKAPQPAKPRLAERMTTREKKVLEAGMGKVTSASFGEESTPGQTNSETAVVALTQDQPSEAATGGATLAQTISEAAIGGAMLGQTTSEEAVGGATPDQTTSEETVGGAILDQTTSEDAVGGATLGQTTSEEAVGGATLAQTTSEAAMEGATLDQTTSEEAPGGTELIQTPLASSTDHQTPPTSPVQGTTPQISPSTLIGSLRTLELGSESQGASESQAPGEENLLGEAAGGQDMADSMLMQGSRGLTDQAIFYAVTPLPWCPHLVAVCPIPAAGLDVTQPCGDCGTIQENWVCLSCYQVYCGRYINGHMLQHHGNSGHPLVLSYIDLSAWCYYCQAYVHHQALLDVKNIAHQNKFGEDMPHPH

[15] = molecular target: T3, Histone deacetylase 8 (Homo sapiens, UniProt Q9BY41); test: Inhibition of HDAC8 (unknown origin)
T3 sequence (Q9BY41 whole entry): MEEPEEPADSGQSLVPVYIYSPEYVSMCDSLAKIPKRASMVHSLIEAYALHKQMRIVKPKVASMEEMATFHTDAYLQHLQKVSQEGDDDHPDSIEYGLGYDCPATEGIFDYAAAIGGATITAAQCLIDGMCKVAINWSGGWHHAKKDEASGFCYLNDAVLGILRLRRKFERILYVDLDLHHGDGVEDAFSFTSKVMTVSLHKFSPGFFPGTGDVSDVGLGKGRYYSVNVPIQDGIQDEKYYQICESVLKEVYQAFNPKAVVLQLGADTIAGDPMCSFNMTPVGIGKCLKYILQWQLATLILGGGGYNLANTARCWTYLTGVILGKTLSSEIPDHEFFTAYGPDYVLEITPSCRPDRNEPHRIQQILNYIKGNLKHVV

[16] = species: Xenopus laevis; details: at 10 to 100 µM
[17] = test system: MDA-MB-231; test: Cytotoxicity against human MDA-MB-231 cells assessed as reversal of cell viability at 200 uM after 72 hrs by MTT assay in presence of SAHA; assay type: functional
[18] = test system: MDA-MB-231; test: Cytotoxicity against human MDA-MB-231 cells assessed as reversal of cell viability at 10 uM after 72 hrs by MTT assay in presence of SAHA; assay type: functional, cell-based

| SMILES | IC50 [1] | IC50 [2] | IC50 [3] | IC50 [4] | IC50 [7] | IC50 [8] | IC50 [9] | IC50 [10] | IC50 [11] | IC50 [12] | IC50 [13] | IC50 ([2]; read-out: IC50) | IC50 ([3]; read-out: IC50) | also measured |
| --- | --- | --- | --- | --- | --- | --- | --- | --- | --- | --- | --- | --- | --- | --- |
| O=C(CCCCCCC(=O)Nc1ccccc1)NO [VORINOSTAT] | – | – | – | – | Not Active | Not Active | Not Active | Not Active | – | – | – | – | – | – |
| Nc1ccccc1NC(=O)CCCCC(=O)Nc1ccc2c(c1)/C(=C/c1ccc[nH]1)C(=O)N2 | Not Active | Not Active | Not Active | Not Active | Not Active | Not Active | Not Active | Not Active | 1260 nM | 3290 nM | 2.42 nM | – | – | IC50 [14]: Not Active; IC50 [15]: Not Active |
| Cc1cc(C)c(/C=C2\C(=O)Nc3ccccc32)[nH]1 | – | – | – | – | – | – | – | – | – | – | – | – | – | inhibition [16]: Active |
| Nc1ccccc1NC(=O)CCCCCCC(=O)Nc1ccc2c(c1)/C(=C/c1ccc[nH]1)C(=O)N2 | Not Active | Not Active | Not Active | Not Active | Not Active | Not Active | Not Active | Not Active | 373 nM | 2230 nM | 394 nM | – | – | IC50 ([14]; read-out: IC50): 4610 nM; IC50 [15]: Not Active |
| O=C1Nc2ccc(O)cc2/C1=C/c1ccc[nH]1 | – | – | – | – | – | – | – | – | – | – | – | 405 nM | 637 nM | IC50 ([1]; read-out: IC50): 116 nM; IC50 ([4]; read-out: IC50): 406 nM; Activity [17]: 70%; Activity [18]: Active |

The next lines start with results.

| IC50 [1] | IC50 [2] | IC50 [3] | IC50 [4] | IC50 [7] | IC50 [8] | IC50 [9] | IC50 [10] | IC50 [11] | IC50 [12] | IC50 [13] | IC50 ([2]; read-out: IC50) | IC50 ([3]; read-out: IC50) | SMILES | also measured |
| --- | --- | --- | --- | --- | --- | --- | --- | --- | --- | --- | --- | --- | --- | --- |
| Not Active | Not Active | Not Active | – | – | – | – | – | – | – | – | – | – | CSCCCNC(=O)c1ccc2c(c1)NC(=O)/C2=C\c1[nH]c(C)cc1C | – |
| Not Active | Not Active | Not Active | Not Active | – | – | – | – | – | – | – | – | – | Cc1cc(C)c(/C=C2\C(=O)Nc3ccc(NC(=O)CCCCCCC(=O)NO)cc32)[nH]1 | IC50 [5]: 443 nM; inhibition [6]: > 20% |
| Not Active | – | – | – | – | – | – | – | – | – | – | 38 nM | 8 nM | CSCCCNC(=O)c1ccc2c(c1)/C(=C/c1[nH]c(C)cc1C)C(=O)N2 | – |
| – | – | – | Not Active | Not Active | Not Active | Not Active | Not Active | 9.37 nM | 20.4 nM | 9.77 nM | 290 nM | 518 nM | O=C(CCCCC(=O)Nc1ccc2c(c1)/C(=C/c1ccc[nH]1)C(=O)N2)NO | IC50 ([1]; read-out: IC50): 205 nM; IC50 [5]: 935 nM; IC50 ([14]; read-out: IC50): 1.61 nM; IC50 ([15]; read-out: IC50): 312 nM |
